Test results as given in patent US4076704A, “Dipeptide derivatives and their production” (Shionogi & Co., Ltd., priority 1974, dated 1978).

Tests used:
Type in all cases: in vivo
DS male mice [1] = assay: Anti-pentylenetetrazol activity; details: compound given orally 60 minutes prior to 125 mg/kg s.c. pentylenetetrazol, complete protection against mortality, observed 2 hours
Description: 1. Anti-pentylenetetrazol activity
The convulsions were disregarded.

DS male mice [2] = assay: Taming activity (inhibition of electroshock-induced fighting); details: compound administered 60 minutes prior, inhibition of fighting responses, 5 pairs
Procedure: (§1) This test was measured on DS male mice.
These pairs of mice were selected in the morning and used for drug test in the afternoon. The test compound was administered to both mice of the pairs 60 minutes prior to the experiment. Results were obtained as the mean percentage of inhibition of fighting responses in a group of 5 pairs and shown by ED50 [Tedeschi, et al.: J. Pharmacol Exp. Thev., 125, 28-34 (1959)].

DS male mice [3] = assay: Rotarod performance activity; details: fall from rod within less than 2 minutes
Procedure: 3. Rotarod performance activity:
as §1
The mouse was put on a scraped rod of wood, 3 cm in diameter, turning at the rate of five rotations per minute. The mice that could remain on the rod for 3 or more minutes in successive trails were selected and placed in a group of 10 mice for each dose. If the mouse fell down from the rod within less than 2 minutes, the test compound was considered to be effective. Results were shown by ED50 [Dunham, et al.: J. Am. Pharm. Assoc., 46, 208 (1957)].

SMILES: CN(C(=O)CNC(=O)CN)c1ccc(Cl)cc1C(=O)c1ccccc1 [Compound 1, 2-benzoyl-4-chloro-N-methyl-N^α -glycyl-glycinanilide]
- Anti-pentylenetetrazol activity, ED50 (DS male mice [1]): 1.0 mg/kg

SMILES: CN(C(=O)CNC(=O)CN)c1ccc(Cl)cc1C(=O)c1ccccc1Cl.O [Compound 2, 2-o-chlorobenzoyl-4-chloro-N-methyl-N^α -glycyl-glycinanilide hydrate]
- Anti-pentylenetetrazol activity, ED50 (DS male mice [1]): 0.58 mg/kg
- Taming activity ED50 (DS male mice [2]): 3.0 mg/kg

SMILES: CN(C(=O)CNC(=O)CN)c1ccc(Cl)cc1C(=O)c1ccccc1F.Cl [Compound 3, 2-o-fluorobenzoyl-4-chloro-N-methyl-N^α -glycyl-glycinanilide hydrochloride]
- Anti-pentylenetetrazol activity, ED50 (DS male mice [1]): 0.33 mg/kg
- Taming activity ED50 (DS male mice [2]): 1.6 mg/kg
- Rotarod performance ED50 (DS male mice [3]): 17.0 mg/kg

SMILES: CNC1=Nc2ccc(Cl)cc2C(c2ccccc2)=[N+]([O-])C1 [Compound 4, Chlordiazepoxide, reference compound]
- Rotarod performance ED50 (DS male mice [3]): 50.0 mg/kg
